{"source": "patent US20170349532A1", "about": "“CATIONIC LIPID” (Kyowa Hakko Kirin Co., Ltd., priority 2011, published 2017)", "key": {"[1]": {"assay": "Average particle diameter of preparation (Zetasizer Nano ZS)", "type": "physicochemical", "conditions": "average particle diameter of cationic lipid/nucleic acid complex; Example 118 preparation: compound/PEG-DMPE Na/DSPC/cholesterol with apo-b siRNA", "summary_of_the_method": "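Lipid nanoparticles formed by mixing cationic lipid/PEG-DMPE Na/DSPC/cholesterol (8.947/1.059/5.708/13.697 mmol/L in 90% ethanol, 37 °C) with apo-b siRNA in Tris-EDTA/citrate buffer pH 5.0, then diluted with citrate/NaCl pH 6.0 and DPBS to 10 μM siRNA. Mean complex diameter measured by dynamic light scattering.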"}, "[2]": {"tested_on": "CKAP5 mRNA in MIA PaCa-2 subcutaneous tumor", "assay": "Test Example 3: in vivo mRNA knockdown evaluation in MIA PaCa-2 xenograft", "design": "species or system SCID mouse", "conditions": "Example 122 preparation with CKAP5 siRNA; 48 hours after intravenous administration, 10 mg/kg siRNA, MIAPaCa-2 xenograft mouse", "procedure": "The preparations obtained in Example 122 and 123 are subjected to an in vivo mRNA knockdown evaluation test in the following manner.\nMIA PaCa-2 that is a cell line derived from human pancreas cancer is received from the JCRB Cell Bank and cultivated with high glucose-containing DMEM (manufactured by GIBCO, 11995-073) containing a 10% inactivated fetal calf serum (manufactured by GIBCO) and 1 vol % penicillin-streptomycin (manufactured by GIBCO, 26253-84) under conditions at 37° C. and 5% CO2. […] Before the administration and 48 hours after the administration, the weight of the mouse is measured. […]\nWith respect to the obtained tumor sample, 1 mL of a Trizol reagent (manufactured by Invitrogen, 15596-018) and zirconia beads of 5 mm are added to a 2-mL round bottom tube containing the sample charged therein, and the contents are pulverized by Tissue lyser II (manufactured by QIAGEN) under conditions of 1/25 freq, 1.5 minutes×2 times. […] A concentration of the extracted RNA is measured by a trace absorption photometer Dropsense96 (Trinean), and RNA corresponding to from 200 to 1,000 ng is subjected to reverse transfer with a Transcriptor (manufactured by Roche, 4897030). […] An mRNA amount of the specimen is calculated as a relative proportion when the mRNA amount of CKAP5 mRNA was defined as 1. […]"}}, "data": [{"smiles": "CCCCC/C=C\\C/C=C\\CCCCCCCC(=O)OC[C@@H]1CN(C)C[C@H]1COC(=O)CCCCCCC/C=C\\C/C=C\\CCCCC", "note": "(relative stereo) [Compound 110, trans-1-Methyl-3,4-bis(((9Z,12Z)-octadec-9,12-dienoyloxy)methyl)pyrrolidine]", "values": [{"measurement": "Particle diameter of Preparetion", "setting": "[1]", "result": 131.6, "unit": "nm"}, {"measurement": "amount of CKAP mRNA in tumor, relative proportion", "setting": "[2]", "result": 0.28}, {"measurement": "in vivo mRNA knockdown rate", "setting": "[2]", "result": 72, "unit": "%"}]}]}
